In US11447486B2, “2-amino-benzimidazole derivatives and their use as 5-lipoxygenase and/or prostaglandin E synthase inhibitors” (INSTITUT PASTEUR KOREA, priority 2014, dated 2022):
pEC50, pIC50: −log10 of the molar value.

Tests used:
human 5-LOX = molecular target: T1, human 5-LOX (Homo sapiens, UniProt P09917); assay: 5-LOX enzyme activity, fluorescence method (5-HPETE, H2DCFDA); type: biochemical; settings: read-out: 5-LO (IC50)
T1 construct: purchased Cayman 60402; host or cells: insect cells (lysate)
T1 sequence (P09917 1-674): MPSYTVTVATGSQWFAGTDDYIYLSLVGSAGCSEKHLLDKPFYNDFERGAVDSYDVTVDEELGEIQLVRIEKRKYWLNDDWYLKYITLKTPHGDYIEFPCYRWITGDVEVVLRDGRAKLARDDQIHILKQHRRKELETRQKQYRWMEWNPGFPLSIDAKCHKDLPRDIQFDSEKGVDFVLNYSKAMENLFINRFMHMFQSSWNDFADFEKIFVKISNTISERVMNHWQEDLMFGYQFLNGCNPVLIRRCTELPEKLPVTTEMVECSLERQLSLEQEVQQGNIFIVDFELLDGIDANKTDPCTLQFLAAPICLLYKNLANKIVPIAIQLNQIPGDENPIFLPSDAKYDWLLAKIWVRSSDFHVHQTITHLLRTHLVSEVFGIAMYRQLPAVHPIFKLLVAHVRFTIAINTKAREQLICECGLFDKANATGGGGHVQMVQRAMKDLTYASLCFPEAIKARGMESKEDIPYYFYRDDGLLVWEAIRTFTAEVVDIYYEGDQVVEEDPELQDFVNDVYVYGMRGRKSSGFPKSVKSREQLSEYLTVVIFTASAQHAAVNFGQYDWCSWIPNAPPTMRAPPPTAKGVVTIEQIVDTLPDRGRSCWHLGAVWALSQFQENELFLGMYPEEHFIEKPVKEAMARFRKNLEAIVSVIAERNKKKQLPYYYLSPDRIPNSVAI
Experimental: The activity of compounds against 5-LOX were determined by measuring LTB4 (leukotriene B4) levels and/or by a fluorescence method. Both approaches are outlined in more detail below;
The compound, in a dose response manner(0.5 nM to 10 uM), and enzyme mixture was pre-incubated for 5 minutes, and the enzymatic reaction was initiated by addition of ATP and arachidonic acid to a final concentration of 100 uM and 3 uM, respectively. […] All steps were carried out at room temperature.

[1] = tested on: Rat basophilic leukemia (RBL) cells; assay: LTB4 secretion assay in RBL (rat basophilic leukemia cells); type: cell-based; settings: Rattus norvegicus, RBL
Experimental: Rat basophilic leukemia (RBL) cells (ATCC, Cat #CRL-2256) were maintained in EMEM (ATCC, Cat #30-2003) supplemented with 15% FBS. The day before RBL assay, cells were seeded at a concentration of 2×10^4 cells per well in 96-well plates. The media was replaced with 100 ul of EMEM supplemented with 0.5% FBS and compounds in dose response(5 nM to 100 uM) were added. After 15 min of pre-incubation at 37° C., arachidonic acid and calcium ionophore (A23187) were added to give a final concentration of 2.5 uM and 5 uM, respectively. After a further 10 min incubation at 37° C., culture supernatant was transferred and quantification of LTB4 was done with a Leukotriene B4 EIA kit (Cayman, Cat #520111) as instructed.

Row | SMILES | pIC50 (human 5-LOX) | pEC50 [1]
1 | N#CCCNc1nc2ccc(NC3COC3)cc2n1Cc1ccc(Oc2ccc(Cl)cc2)cc1 [Compound 262] | < 5.00 | > 5.00
2 | COCCN(Cc1ccc(Oc2ccc(Cl)cn2)cc1)c1nc2ccc(N)cc2n1C [Compound 338] | > 6.00 | < 4.70
3 | Cn1c(N2CCC(C(=O)Nc3ccc(OC(F)(F)F)cc3)C2)nc2ncc(N)cc21 (stereo not shown) [Compound 76] | > 6.00 | < 4.70
4 | CC(Cc1ccc(Cl)cc1Cl)Nc1nc2ccc(N)cc2n1Cc1ccccc1 (stereo not shown) [Compound 140] | > 6.00 | > 5.00
5 | Cc1cc(Oc2ncc(Cl)cn2)cc(C)c1CNc1nc2ccc(N)cc2n1C [Compound 385] | > 6.00 | 4.70 to 5.00
6 | CN(C)c1nc2ccc(NC3COC3)cc2n1CCOc1ccc(Cl)cc1 [Compound 40] | > 6.00 | 4.70 to 5.00
7 | Cn1ccnc1CNc1ccc2nc(NCc3ccc(Oc4ncc(Cl)cn4)cc3)n(C)c2c1 [Compound 359] | > 6.00 | > 5.00
8 | COc1cc(Oc2ccc(Cl)cn2)ccc1CNc1nc2ccc(N)cc2n1C [Compound 327] | > 6.00 | > 5.00
9 | Cn1c(NCc2ccc(Oc3ncc(Cl)cn3)cc2)nc2ccc(NC(=N)N)cc21 [Compound 441] | < 5.00 | < 4.70
10 | Nc1cc(Cl)c2nc(N3CCCC3)n(CCOc3ccc(OC(F)(F)F)cc3)c2c1 [Compound 89] | > 6.00 | < 4.70
11 | Cc1cc(Oc2ccc(Cl)cn2)cc(C)c1CNc1nc2ccc(NC3COC3)cc2n1C [Compound 335] | > 6.00 | > 5.00
12 | Cn1c(NCc2ccc(Oc3ncc4cccc(Cl)c4n3)cc2)nc2ccc(NC3COC3)cc21 [Compound 437] | > 6.00 | > 5.00
13 | Cn1c(NCc2ccc(Oc3ncc(Cl)cn3)cc2)nc2ccc(NC3CNC3)cc21 [Compound 407] | > 6.00 | > 5.00
14 | CN(C)c1nc2cc(N3CCCC(Oc4ccc(OC(F)(F)F)cc4)C3)ccc2[nH]1 (stereo not shown) [Compound 183] | > 6.00 | < 4.70
15 | FC(F)(F)Oc1ccc(OCCn2c(N3CCCC3)nc3ccc(N4CCC4)cc32)cc1 [Compound 84] | > 6.00 | > 5.00
16 | Cc1cc(Nc2ccc3nc(NCc4ccc(Oc5ncc(Cl)cn5)cc4)n(C)c3n2)n[nH]1 [Compound 500] | 5.00 to 6.00 | 4.70 to 5.00
17 | CCn1c(NCc2ccc(Oc3ncc(C(F)(F)F)cn3)cc2)nc2ccc(NC3COC3)cc21 [Compound 548] | > 6.00 | > 5.00
18 | Nc1cnc2c(c1)nc(N1CCCC1)n2CCOc1ccc(OC(F)(F)F)cc1 [Compound 72] | < 5.00 | < 4.70
19 | Nc1ccc2nc(N)n(Cc3ccc(OCc4ccc(Cl)cn4)cc3)c2c1 [Compound 254] | > 6.00 | > 5.00
20 | Cn1c(NCc2ccc(Oc3ncc(Cl)cn3)cn2)nc2ccc(NC3COC3)cc21 [Compound 355] | 5.00 to 6.00 | < 4.70
21 | CN(C)c1nc2ccc(N)cc2n1CCOc1ccc(Cl)cc1 [Compound 39] | > 6.00 | 4.70 to 5.00
22 | Cn1c(NCc2ccc(-n3ccc4cc(Cl)cnc43)cc2)nc2ccc(NC3COC3)cc21 [Compound 446] | > 6.00 | > 5.00
23 | Cn1c(N(CCO)Cc2ccc(Oc3ccc(Cl)cn3)cc2)nc2ccc(N)cc21 [Compound 317] | > 6.00 | < 4.70
24 | COCCNc1ccc2nc(NCc3ccc(Oc4ccc(Cl)cn4)cc3)n(C)c2c1 [Compound 316] | > 6.00 | > 5.00
25 | Nc1ccc2nc(N)n(CCc3ccc(Oc4ccc(Cl)cn4)cc3)c2c1 [Compound 244] | > 6.00 | > 5.00
26 | Cn1c(NCc2ccc(Oc3ccc(Cl)cc3)cc2)nc2ccc(NCC#N)cc21 [Compound 171] | > 6.00 | < 4.70
27 | Cn1c(NCc2ccc(Oc3cn4ccc(Cl)cc4n3)cc2)nc2ccc(NC3COC3)cc21 [Compound 455] | > 6.00 | > 5.00

The remaining lines, values ahead:

Row | pIC50 (human 5-LOX) | pEC50 [1] | SMILES
28 | > 6.00 | > 5.00 | Nc1ccc2nc(N3CCC(O)C3)n(Cc3ccc(Oc4ccc(Cl)cc4)cc3)c2c1 (stereo not shown) [Compound 206]
29 | > 6.00 | > 5.00 | Cn1c(NCc2ccc(Oc3ccc(Cl)cc3)nc2)nc2ccc(N)cc21 [Compound 287]
30 | > 6.00 | > 5.00 | Cn1c(NCc2ccc(Oc3nc4cc(Cl)ccc4o3)cc2)nc2ccc(N)cc21 [Compound 402]
31 | > 6.00 | > 5.00 | Cn1c(NCc2ccc(Oc3ccc(C(F)(F)F)cn3)cc2)nc2ccc(N)cc21 [Compound 276]
32 | > 6.00 | > 5.00 | Cn1c(NCc2ccc(Oc3ccc(Cl)cc3)cc2)nc2ccc(N3CC(O)C3)cc21 [Compound 192]
33 | > 6.00 | 4.70 to 5.00 | Nc1ccc2nc(NCc3ccc4cc(Cl)ccc4n3)[nH]c2c1 [Compound 156]
34 | > 6.00 | > 5.00 | CCOC(=O)c1coc(-c2ccc(CNc3ccc4[nH]c(N(C)C)nc4c3)cc2)n1 [Compound 218]
35 | > 6.00 | > 5.00 | Nc1ccc2nc(NCc3coc(Cc4ccc(Cl)cc4)n3)[nH]c2c1 [Compound 186]
36 | > 6.00 | > 5.00 | CC(C)(CO)Nc1nc2ccc(N)cc2n1Cc1ccc(Oc2ccc(Cl)cc2)cc1 [Compound 187]
37 | > 6.00 | > 5.00 | CC(C)(O)Cn1c(NCc2ccc(Oc3ccc(Cl)cc3)cc2)nc2ccc(N)cc21 [Compound 209]
38 | > 6.00 | > 5.00 | Cn1c(NCc2ccc(Oc3ccnc4c(Cl)cccc34)cc2)nc2ccc(N)cc21 [Compound 387]
39 | > 6.00 | < 4.70 | Cn1nccc1-c1ccc(CNc2nc3cc(NC4COC4)ccc3[nH]2)cc1 [Compound 201]
40 | > 6.00 | > 5.00 | Cn1c(NCc2ccc(Oc3ccc(C(F)(F)F)nc3)cc2)nc2ccc(N)cc21 [Compound 223]
41 | > 6.00 | > 5.00 | Cn1c(NCc2ccc(Oc3ncc(Cl)cn3)c(Cl)c2)nc2ccc(N)cc21 [Compound 391]
42 | > 6.00 | < 4.70 | Cn1c(NCc2ccc(C(=O)Nc3ccc(Cl)cn3)cc2)nc2ccc(N)cc21 [Compound 310]
43 | > 6.00 | > 5.00 | COC(=O)c1ccc(OC2CCN(c3ccc4[nH]c(N(C)C)nc4c3)C2)cc1 (stereo not shown) [Compound 194]
44 | > 6.00 | < 4.70 | Nc1ccc2[nH]c(N3CCC(C(=O)Nc4ccc(OC(F)(F)F)cc4)C3)nc2c1 (stereo not shown) [Compound 64]
45 | > 6.00 | > 5.00 | Nc1ccc2nc(NCc3ccc(C(=O)C4CCCC4)cc3)[nH]c2c1 [Compound 168]
46 | > 6.00 | > 5.00 | Cn1c(NCc2ccc(Oc3ncc(OC(F)(F)F)cn3)cc2)nc2ccc(N)cc21 [Compound 410]
47 | > 6.00 | < 4.70 | CN(C(=O)c1ccc(CNc2nc3ccc(N)cc3n2C)cc1)c1ccc(Cl)cn1 [Compound 319]
48 | > 6.00 | > 5.00 | NC(=O)CNc1nc2ccc(N)cc2n1Cc1ccc(Oc2ccc(Cl)cc2)cc1 [Compound 217]
49 | > 6.00 | 4.70 to 5.00 | Fc1ccc(OC2CCN(c3nc4cc(NC5COC5)ccc4[nH]3)CC2)cc1 [Compound 36]
50 | > 6.00 | > 5.00 | OCC(O)CNc1ccc2nc(NCc3ccc(Oc4ccc(Cl)cc4)cc3)[nH]c2c1 (stereo not shown) [Compound 215]
51 | > 6.00 | 4.70 to 5.00 | Cc1cc(Nc2ccc3nc(NCc4ccc(Oc5ncc(Cl)cn5)cc4)[nH]c3c2)n[nH]1 [Compound 485]
52 | > 6.00 | > 5.00 | Cn1c(NCc2ccc(Oc3ccc(OC(F)(F)F)cn3)cc2)nc2ccc(N)cc21 [Compound 377]
53 | > 6.00 | < 4.70 | Cn1c(NCc2ccc(Oc3ncc(Cl)cn3)cc2)nc2ccc(NC3CN(C(N)=O)C3)cc21 [Compound 408]
54 | < 5.00 | 4.70 to 5.00 | Cn1c(NCc2ccc(Oc3ncc(Cl)cn3)cc2)nc2ccc(NC(N)=O)cc21 [Compound 429]
55 | 5.00 to 6.00 | < 4.70 | Cn1c(N2CCC(Oc3ccc(F)cc3)CC2)nc2cc(N)ccc21 [Compound 35]
56 | > 6.00 | > 5.00 | Fc1ccc(CNc2nc3cc(NCc4cnc[nH]4)ccc3[nH]2)cc1 [Compound 29]
